Measured values from US20230235358A1, “HOST DEFENSE SUPPRESSING METHODS AND COMPOSITIONS FOR MODULATING A GENOME” (FLAGSHIP PIONEERING INNOVATIONS VI, LLC, priority 2020, published 2023).

What was measured:
[1] = system: mouse liver; experiment: LNP-mediated delivery of firefly luciferase mRNA to the mouse liver (luciferase activity of liver homogenate); type: in vivo; details: C57BL/6 mice, i.v. 1 mg/kg, 6, 24, 48 hours, FIG. 2
Procedure: To measure the effectiveness of LNP-mediated delivery of firefly luciferase containing particles to the liver, LNPs were formulated and characterized as described in Example 9 and tested in vitro prior (Example 10) to administration to mice. C57BL/6 male mice (Charles River Labs) at approximately 8 weeks of age were dosed with LNPs via intravenous (i.v.) route at 1 mg/kg. Vehicle control animals were dosed i.v. with 300 μL phosphate buffered saline. Mice were injected via intraperitoneal route with dexamethasone at 5 mg/kg 30 minutes prior to injection of LNPs. Tissues were collected at necropsy at or 6, 24, 48 hours after LNP administration with a group size of 5 mice per time point. Liver and other tissue samples were collected, snap-frozen in liquid nitrogen, and stored at −80° C. until analysis.
Frozen liver samples were pulverized on dry ice and transferred to homogenization tubes containing lysing matrix D beads (MP Biomedical). Ice-cold 1×luciferase cell culture lysis reagent (CCLR) (Promega) was added to each tube and the samples were homogenized in a Fast Prep-24 5G Homogenizer (MP Biomedical) at 6 m/s for 40 seconds. The samples were transferred to a clean microcentrifuge tube and clarified by centrifugation. Prior to luciferase activity assay, the protein concentration of liver homogenates was determined for each sample using the Pierce™ BCA Protein Assay Kit (ThermoFisher Scientific) according to the manufacturer's instructions. Luciferase activity was measured with 200 μg (total protein) of liver homogenate using the luciferase assay reagent (Promega) according to manufacturer's instructions using an i3X SpectraMax plate reader (Molecular Devices). […] Reporter activity by the various formulations followed the ranking LIPIDV005>LIPIDV004>LIPIDV003. RNA expression was transient and enzyme levels returned near vehicle background by 48 hours. Post-administration. This assay validated the use of these ionizable lipids and their respective formulations for RNA systems for delivery to the liver.

[2] = system: primary human dermal fibroblasts; experiment: Gene Writing efficiency (GFP flow cytometry / ddPCR) with BAY 11-7082; type: cell-based; details: addition of BAY11
Procedure: (§1) In this example, primary human dermal fibroblasts (ATCC PCS-201-012) are cultured according to ATCC instructions. Cells are nucleofected (Lonza Nucleofector®) with the following samples: • 1. mRNA encoding Gene Writer polypeptide targeting AAVS1+Gene Writer RNA template carrying a GFP reporter gene • 2. Condition (1) with genetically inactivated Gene Writer polypeptide • 3. Condition (1)+BAY 11-7082 • 4. Condition (1)+BAY 11-7082+IFN-beta
(§2) Gene Writing efficiency is measured from cultured cells 3 days after transfection by flow cytometry to assay the percentage of cells expressing GFP or by digital droplet PCR analysis with primers and probe on the junction between the template sequence and the targeted locus and on reference sequences as previously described (see PCT/US2019/048607). […] In some embodiments, the addition of BAY11 will increase one or both of the expression of the Gene Writer polypeptide, and the stability of the RNA template. In some embodiments, the addition of […] will also reduce cytotoxicity, e.g., cytotoxicity that is due to intracellular immune pathways.

[3] = system: human skin cells; details: cited from earlier work
[4] = system: primary human dermal fibroblasts; experiment: Cytotoxicity (PrestoBlue) three days post transfection, Example 3; type: cell-based; details: addition of BAY11
Procedure: as §1, §2

SMILES | Reporter (luciferase) activity in liver, ranking of formulations [1] | Expression of the Gene Writer polypeptide and/or stability of the RNA template [2] | Expression of OCT4 from synthetic mRNA [3] | Cytotoxicity due to intracellular immune pathways [4]
CCCCCCCC(=O)N(CCCN(C)C)C(CCCCCCCCC(=O)OC(CCCCCC)CCCCCC)CCCCCCCCC(=O)OC(CCCCCC)CCCCCC [LIPIDV005] | LIPIDV005>LIPIDV004>LIPIDV003 | – | – | –
Cc1ccc(S(=O)(=O)/C=C/C#N)cc1 [BAY11, BAY 11-7082] | – | increase | improve | reduce
CCCCCCCCCOC(=O)CCCCCCCN(CCO)CCCCCCCC(=O)OC(CCCCCCCC)CCCCCCCC [LIPIDV004] | LIPIDV005>LIPIDV004>LIPIDV003 | – | – | –
CCCCC/C=C\C/C=C\CCCCCCCC(=O)OCC(COC(=O)CCC(OCCCCCCCC)OCCCCCCCC)COC(=O)OCCCN(CC)CC (stereo not drawn) [LIPIDV003] | LIPIDV005>LIPIDV004>LIPIDV003 | – | – | –
